Test results reported in PMC5573368, “Elucidation of Dietary Polyphenolics as Potential Inhibitor of Microtubule Affinity Regulating Kinase 4: In silico and In vitro Studies” (Scientific Reports, 2017).
Where two headings read alike, the source gives them in different places.

What was measured:
MARK4 [1] = molecular target: T1, MARK4 (Homo sapiens, UniProt Q96L34); assay: Fluorescence quenching binding study (modified Stern-Volmer); conditions: excitation 280 nm, 25 °C
T1 construct: inferred from Ni-NTA purification; made in house
T1 sequence (Q96L34 59-368): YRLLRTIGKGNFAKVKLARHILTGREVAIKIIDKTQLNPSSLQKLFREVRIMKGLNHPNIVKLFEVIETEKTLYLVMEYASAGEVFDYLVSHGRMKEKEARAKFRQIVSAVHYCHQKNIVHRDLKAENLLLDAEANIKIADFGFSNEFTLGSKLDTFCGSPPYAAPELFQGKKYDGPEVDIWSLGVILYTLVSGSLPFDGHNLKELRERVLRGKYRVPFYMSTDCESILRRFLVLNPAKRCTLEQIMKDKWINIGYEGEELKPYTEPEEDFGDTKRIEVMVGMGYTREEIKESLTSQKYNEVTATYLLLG

MARK4 [2] = molecular target: T1, MARK4; assay: ATPase inhibition assay ([γ-32P]ATP hydrolysis, TLC); assay type: biochemical
[3] = tested on: phosphorylation of tau in SH-SY5Y cells; assay: Tau-phosphorylation assay by flow cytometry (anti-tau pSer262); assay type: cell-based, human; conditions: 80–120 μM, 24 hrs
MARK4 [4] = molecular target: T1, MARK4; assay: Isothermal titration calorimetry; assay type: binding; conditions: ITC, two-site model; for K a1 (association constant): site 1, 25 °C; for K a2 (association constant): site 2, 25 °C
MCF-7 cells [5] = assay: MTT cell proliferation assay, MCF-7; assay type: cell-based; conditions: Homo sapiens, MCF7; MCF-7, MTT, 48 h; read-out: IC50 (cell viability)
Description: (§1) Briefly, breast cancer cells (MCF-7), human cervical cancer cells (HeLa), human neuroblastoma (SH-SY5Y) cells and human embryonic kidney cells (HEK293T) were seeded in a 96 well plates at a concentration of 10 × 10^3 viable cells per well. […] After 48 h of treatment, both medium and inhibitor were removed from the cells, washed twice with phosphate buffer saline (PBS) and then 20 µl MTT (from 5 mg/ml stock) and 100 µl DMEM was loaded to each well followed by 4–5 hours incubation in a CO2 incubator at 37 °C. Finally, the residual MTT medium was removed carefully and dissolves the crystals of formazan by adding 100 µl DMSO in each well. The micro-titer plates were then agitated for 15–20 minutes on an orbital plate shaker and then absorbance at 570 nm was determined on a titerplate reader (BioRad). The absorbance value so obtained was converted into percentage viability in comparison to the control cells (untreated cells/cells treated with media only). For cell proliferation studies doxorubicin has been taken as positive control.

HeLa cells = assay: MTT cell proliferation assay, HeLa; assay type: cell-based; conditions: Homo sapiens, 48 h, read-out: IC50 (cell viability)
Description: as §1

HEK293 cells = assay: MTT cell proliferation assay, HEK293; assay type: cell-based, human; conditions: 48 h, at a dose even higher than 200 μM
Description: as §1

SH-SY5Y cells = assay: MTT cell proliferation assay, SH-SY5Y; assay type: cell-based, human; conditions: 48 h, at a dose even higher than 200 μM
Description: as §1

MCF-7 cells [6] = assay: Annexin-V apoptosis assay by flow cytometry; assay type: cell-based, human; conditions: MCF-7, IC50 concentration (rutin 80 μM, vanillin 120 μM), 48 h
From the text: Apoptosis plays a central role in the progress and pathophysiology of a wide variety of diseases. However, due to impairment of apoptotic signal transmission most of the cancerous cells evade apoptosis. […] Annexin- V staining was used to study the apoptosis. […] Cells were washed twice with phosphate-buffered saline (PBS) and stained with FITC labeled Annexin- V. Annexin- Vpositive cells were examined by flow cytometry. […] Annexin-V staining was used to determine the cell apoptosis, [73]. […] After treatment, nearly 2 × 10^6 cells were trypsinized and washed two times with 5 ml of PBS by centrifuging at 1800 rpm for 4 min. FITC-Annexin-V staining was done by using FITC-Annexin-V kit according to the manufacturer’s instructions (BD-Biosciences, USA). 10,000 events for each sample were analyzed by flow cytometry BD FACS Canto and data analysis was performed with help of flowJo software.

MCF-7 cells [7] = assay: Intracellular ROS by DCFDA staining; assay type: cell-based, human; conditions: MCF-7, 20–120 μM, 12 h
Description: (§2) Followed by incubation, to measure intracellular ROS, 2-Dichlorofluorescein diacetate (DCFDA) staining was performed. […] Further, cytoplasmic superoxide level was measured by dihydroethidium staining (Fig. 7C). […] In fluorescence imaging, substantial decreases in the extent of DHE fluorescence as compared to control (untreated cells) have been observed (Fig. 7C ). […] Total Reactive oxygen species determination (ROS) content inside the cells was determined using the DCFDA reagent. This assay measures various ROS such as H2O2 and hydroxyl radicals. […] After that cells were washed twice with PBS, pH7.4, trypsinized and collected by centrifugation. Finally cells were resuspended in 300 μl of PBS and fluorescence was measured at Jasco spectroflourimeter (FP-6200) using a 5 mm quartz cuvette. The excitation and emission filters were set at 485/500–550 nm respectively. Similarly with some modifications, cytosolic superoxide levels were determined using dihydroxyethidium staining. Briefly, cells were grown on coverslips to 70–80% confluency and replaced the complete media with reduced serum media for overnight. […] Following DHE staining, DAPI is used to satin nuclei of the cells as described earlier. Fluorescence images were taken on Nikon-EclipseTS100 microscope.

MCF-7 cells [8] = assay: Cytoplasmic superoxide by DHE staining; assay type: cell-based, human; conditions: MCF-7, rutin 80 μM, vanillin 120 μM
Description: as §2

[9] = site 1, read-out: K D1 (dissociation constant)
[10] = site 2, read-out: K D2 (dissociation constant)

Row | Structure (SMILES) | Binding affinity (K a) (MARK4 [1]) | inhibition at 40 µM (MARK4 [2]) | Phosphorylation of tau [3] | K a1 (association constant) (MARK4 [4]) | Kd (MARK4 [4]; [9]) | K a2 (association constant) (MARK4 [4]) | Kd (MARK4 [4]; [10]) | IC50 (MCF-7 cells [5]) | IC50 (HeLa cells) | Effect on cell viability (HEK293 cells) | Effect on cell viability (SH-SY5Y cells) | Increase in apoptosis as compared to the control cells (MCF-7 cells [6]) | DCF fluorescence (intracellular ROS) (MCF-7 cells [7]) | Cytoplasmic superoxide levels (DHE fluorescence) (MCF-7 cells [8]) | also measured
1 | COc1cc(C=O)ccc1O [Vanillin] | 16500 M⁻¹ | ~50% | inhibit the phosphorylation of tau | K a1 = 8.43 × 10^3 ± 0.5 × 10^3 M^−1 | 119 µM | K a2 = 1.45 × 10^5 ± 0.29 × 10^5 M^−1 | 6.9 µM | 120 µM | > 200 µM | did not inhibit the viability | did not inhibit the viability | 9% | dose-dependent decrease in DCF fluorescence | decreases cytoplasmic superoxide levels | –
2 | COc1cccc2c1C(=O)c1c(O)c3c(c(O)c1C2=O)C[C@@](O)(C(=O)CO)C[C@@H]3O[C@H]1C[C@H](N)[C@H](O)[C@H](C)O1 [doxorubicin, reference compound] | – | – | – | – | – | – | – | 0.12 µM | – | – | – | – | – | – | –
3 | C[C@@H]1O[C@@H](OC[C@H]2O[C@@H](Oc3c(-c4ccc(O)c(O)c4)oc4cc(O)cc(O)c4c3=O)[C@H](O)[C@@H](O)[C@@H]2O)[C@H](O)[C@H](O)[C@H]1O [Rutin] | 287000 M⁻¹ | ~50% | inhibit the phosphorylation of tau | K a1 = 2.04 × 10^5 ± 0.15 × 10^5 M^−1 | 4.9 µM | K a2 = 1.72 × 10^6 ± 0.31 × 10^6 M^−1 | 0.581 µM | 80 µM | > 200 µM | did not inhibit the viability | did not inhibit the viability | 12% | dose-dependent decrease in DCF fluorescence | decreases cytoplasmic superoxide levels | ATPase enzyme activity in initial screening (MARK4 [2]; initial screening, compound 30 µM (Fig. S5)): significant decrease in the enzyme activity; ΔH 1 (enthalpy change) (MARK4 [4]; site 1): ΔH 1 = −4.61 × 10^6 cal/mol; ΔS 1 (MARK4 [4]; site 1): ΔS 1 = −1.52 × 10^4 cal/mol/deg; ΔH 2 (enthalpy change) (MARK4 [4]; site 2): ΔH 2 = −1.0 × 10^4 cal/mol; ΔS 2 (MARK4 [4]; site 2): ΔS 2 = −4.74 cal/mol/deg
4 | O=C(O)c1cc(O)c(O)c(O)c1 [Gallic acid] | 7.6 M⁻¹ | – | – | – | – | – | – | – | – | – | – | – | – | – | –
5 | COc1ccc([C@@H]2CC(=O)c3c(O)cc(O[C@@H]4O[C@H](CO[C@@H]5O[C@@H](C)[C@H](O)[C@@H](O)[C@H]5O)[C@@H](O)[C@H](O)[C@H]4O)cc3O2)cc1O [Hesperidin] | 112 M⁻¹ | – | – | – | – | – | – | – | – | – | – | – | – | – | –
6 | COc1cc(/C=C/C(=O)O)ccc1O [Ferulic acid] | 13000 M⁻¹ | – | – | – | – | – | – | – | – | – | – | – | – | – | –
